Laboratory results taken from the supplement of paper PMC10307832.

How the values were obtained:
Assay in all cases: relative viability (nuclei count vs DMSO), 5 days (fraction); higher = more cells survive
Dasatinib + OSI-027 = compound: Cc1nc(Nc2ncc(C(=O)Nc3c(C)cccc3Cl)s2)cc(N2CCN(CCO)CC2)n1 [Dasatinib] + COc1cccc2cc(-c3nc([C@H]4CC[C@H](C(=O)O)CC4)n4ncnc(N)c34)[nH]c12 [OSI-027] (partner 0.5 µM)
In short: (§1)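 Lung cancer cell lines were seeded in 1536-well plates and dosed by pin tool the next day, with either a single drug or a fixed anchor-drug dose combined with five library-drug doses (not always all listed) spaced in √10 steps. Five days later, one step fixed the cells and stained their nuclei (final 0.05% Triton X-100, 1% formaldehyde, 1 ug/ml Hoechst), and nuclei were counted on 4× images. Relative viability is the nuclei count in treated wells divided by the count in vehicle wells, and each value is the median of duplicate plates.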

XMD13-2 + Foretinib = compound: C1CC1C(=O)NC2=NNC3=C2C=CC(=C3)C4=CC(=CC=C4)C(=O)NC5CC5 [XMD13-2] + COc1cc2c(Oc3ccc(NC(=O)C4(C(=O)Nc5ccc(F)cc5)CC4)cc3F)ccnc2cc1OCCCN1CCOCC1 [Foretinib] (partner 0.25 µM)
In short: as §1

ALW-II-49-7 + Alpelisib = compound: Cc1ccc(C(=O)Nc2cccc(C(F)(F)F)c2)cc1Nc1cncc(C(N)=O)c1 [ALW-II-49-7] + Cc1nc(NC(=O)N2CCC[C@H]2C(N)=O)sc1-c1ccnc(C(C)(C)C(F)(F)F)c1 [Alpelisib] (partner 2 µM)
In short: as §1

ALW-II-49-7 + Pemetrexed = compound: Cc1ccc(C(=O)Nc2cccc(C(F)(F)F)c2)cc1Nc1cncc(C(N)=O)c1 [ALW-II-49-7] + Nc1nc2[nH]cc(CCc3ccc(C(=O)N[C@@H](CCC(=O)O)C(=O)O)cc3)c2c(=O)[nH]1 [Pemetrexed] (partner 0.2 µM)
In short: as §1

Row | Cell Line | relative viability (Dasatinib + OSI-027; first compound 0.005 µM) | relative viability (Dasatinib + OSI-027; first compound 0.01581 µM) | relative viability (Dasatinib + OSI-027; first compound 0.05 µM) | relative viability (Dasatinib + OSI-027; first compound 0.1581 µM) | relative viability (Dasatinib + OSI-027; first compound 0.5 µM) | relative viability (XMD13-2 + Foretinib; first compound 0.05 µM) | relative viability (XMD13-2 + Foretinib; first compound 0.1581 µM) | relative viability (XMD13-2 + Foretinib; first compound 0.5 µM) | relative viability (XMD13-2 + Foretinib; first compound 1.581 µM) | relative viability (XMD13-2 + Foretinib; first compound 5 µM) | relative viability (ALW-II-49-7 + Alpelisib; first compound 0.08 µM) | relative viability (ALW-II-49-7 + Alpelisib; first compound 0.253 µM) | relative viability (ALW-II-49-7 + Alpelisib; first compound 0.8 µM) | relative viability (ALW-II-49-7 + Alpelisib; first compound 2.53 µM) | relative viability (ALW-II-49-7 + Alpelisib; first compound 8 µM) | relative viability (ALW-II-49-7 + Pemetrexed; first compound 0.08 µM) | relative viability (ALW-II-49-7 + Pemetrexed; first compound 0.253 µM) | relative viability (ALW-II-49-7 + Pemetrexed; first compound 0.8 µM) | relative viability (ALW-II-49-7 + Pemetrexed; first compound 2.53 µM) | relative viability (ALW-II-49-7 + Pemetrexed; first compound 8 µM)
1 | NCI-H727 | 0.6 | 0.488 | 0.45 | 0.295 | 0.197 | 1.21 | 0.903 | 0.946 | 0.738 | 0.737 | 0.716 | 0.572 | 0.538 | 0.678 | 0.541 | – | – | – | – | –
2 | NCI-H358 | 0.806 | 0.542 | 0.439 | 0.149 | 0.122 | 0.805 | 0.767 | 0.904 | 0.685 | 0.335 | 0.718 | 0.802 | 0.925 | 0.965 | 0.902 | 0.163 | 0.181 | 0.189 | 0.148 | 0.155
3 | NCI-H1437 | 1.01 | 0.863 | 0.837 | 0.798 | 0.365 | 1.2 | 1.25 | 1.25 | 1.24 | 1.27 | 0.949 | 1.01 | – | 0.901 | 0.959 | 0.324 | 0.328 | 0.345 | 0.311 | 0.243
4 | NCI-H441 | 0.784 | 0.582 | 0.742 | 0.424 | 0.307 | 1.1 | 0.902 | 0.956 | 1.06 | 0.661 | 0.854 | 0.771 | 0.768 | 0.48 | 0.591 | 0.27 | 0.25 | 0.26 | 0.234 | 0.211
5 | EMC-BAC-2 | 0.315 | 0.264 | 0.259 | 0.192 | 0.152 | 1.11 | 1.01 | 0.791 | 0.957 | 0.61 | 0.843 | 0.703 | 0.758 | 0.715 | 0.645 | 0.448 | 0.455 | 0.409 | 0.456 | 0.403
6 | NCI-H647 | 0.672 | 0.303 | 0.251 | 0.213 | 0.118 | 1.36 | 1.13 | 1.31 | 1.21 | 0.796 | 0.769 | 1.13 | 1.19 | 0.882 | 0.557 | 0.186 | 0.175 | 0.16 | 0.123 | 0.115
7 | CAL-12T | 0.845 | 0.819 | 0.846 | 0.375 | 0.221 | 1.22 | 1.07 | 1.09 | 1.11 | 1.01 | 1.26 | 1.14 | 1.2 | 1.21 | 1.26 | 1.16 | 1.3 | 1.27 | 1.25 | 0.749
8 | NCI-H1792 | 0.774 | 0.559 | 0.681 | 0.461 | 0.333 | – | – | – | – | – | 0.512 | 0.459 | 0.586 | 0.504 | 0.473 | 0.561 | 0.531 | 0.446 | 0.857 | 0.602
9 | H3255 | 0.639 | 0.484 | 0.653 | 0.44 | 0.274 | 0.886 | 0.891 | 0.893 | 0.696 | 0.984 | 0.828 | 0.743 | 0.73 | 0.403 | 0.511 | 0.623 | 0.579 | 0.576 | 0.566 | 0.489
10 | HCC-78 | 0.317 | 0.361 | 0.267 | 0.326 | 0.257 | 0.541 | 0.539 | 0.502 | 0.51 | 0.487 | 0.275 | 0.309 | 0.351 | 0.325 | 0.337 | 0.888 | 0.846 | 0.91 | 0.884 | 0.891
11 | EBC-1 | – | – | – | – | – | 0.0838 | 0.0911 | 0.109 | 0.124 | 0.0963 | 0.791 | 0.783 | 0.731 | 0.644 | 0.522 | – | – | – | – | –
12 | NCI-H2405 | 0.581 | 0.418 | 0.353 | 0.245 | 0.161 | 1.09 | 1 | 1.09 | 1.06 | 1.04 | 0.741 | 0.829 | 0.743 | 0.248 | 0.753 | 1.14 | 1.12 | 0.898 | 1.06 | 0.791
13 | A549 | – | – | – | – | – | 1.08 | 0.972 | 0.902 | 0.965 | 0.97 | 0.82 | 0.756 | 0.728 | 0.802 | 0.712 | – | – | – | – | –
14 | NCI-H3122 | 0.994 | 1.01 | 1.05 | 0.921 | 0.82 | 0.966 | 0.949 | 1.05 | 0.977 | 0.939 | 0.824 | 0.651 | 0.865 | 0.873 | 0.981 | 0.201 | 0.174 | 0.207 | 0.216 | 0.186
15 | NCI-H1563 | 0.702 | 0.691 | 0.626 | 0.618 | 0.541 | 0.883 | 1.06 | 0.99 | 0.961 | 0.866 | 0.946 | 0.941 | 1.01 | 0.977 | 0.976 | 0.73 | 0.732 | 0.718 | 0.811 | 0.713
16 | HCC-44 | 0.65 | 0.754 | 0.466 | 0.337 | 0.273 | – | – | – | – | – | 0.796 | 0.854 | 0.887 | 0.752 | 0.592 | 0.683 | 0.662 | 0.617 | 0.664 | 0.673
17 | PC-3 [JPC-3] | 0.764 | 0.739 | 0.759 | 0.73 | 0.38 | 1.02 | 1.02 | 1.05 | 0.999 | 0.989 | 1.02 | 0.989 | 0.987 | 1.09 | 1.02 | 0.976 | 0.909 | 0.843 | 1.27 | 0.947
